Columns and labels:
Assay type in all cases: functional
Homo sapiens = species on record: Homo sapiens; experiment: The compound was tested in vitro for its anti-platelet activity against human platelets in presence of ADP
Cavia porcellus [1] = experiment: Tested ex vivo for its inhibitory activity at 1 hr against guinea pig after oral administration of 0.32 mg/Kg dose to evaluate bioavailability
Canis familiaris [2] = experiment: Tested ex vivo for its inhibitory activity at 8 hr against dogs after oral administration of 10 mg/Kg dose to evaluate bioavailability; details: Canis lupus familiaris
Canis familiaris [3] = experiment: Tested ex vivo for its inhibitory activity at 3 hr against dogs after oral administration of 10 mg/Kg dose to evaluate bioavailability; details: Canis lupus familiaris
Canis familiaris [4] = species on record: Canis familiaris; experiment: The compound was tested in vitro for its anti-platelet activity against dog platelets in presence of ADP; details: Canis lupus familiaris
Cavia porcellus [5] = experiment: Tested ex vivo for its inhibitory activity at 2 hr against guinea pig after oral administration of 0.32 mg/Kg dose to evaluate bioavailability
Canis familiaris [6] = experiment: Tested ex vivo for its inhibitory activity at 6 hr against dogs after oral administration of 10 mg/Kg dose to evaluate bioavailability; details: Canis lupus familiaris
Canis familiaris [7] = experiment: Tested ex vivo for its inhibitory activity at 1 hr against dogs after oral administration of 1 mg/Kg dose to evaluate bioavailability; details: Canis lupus familiaris
Rattus norvegicus [8] = experiment: Tested ex vivo for its inhibitory activity at 2 h against rats after oral administration of 3.2 mg/Kg dose to evaluate bioavailability
Cavia porcellus [9] = experiment: Tested ex vivo for its inhibitory activity at 2 hr against guinea pig after oral administration of 1 mg/Kg dose to evaluate bioavailability
Canis familiaris [10] = experiment: Tested ex vivo for its inhibitory activity at 6 hr against dogs after oral administration of 3.2 mg/Kg dose to evaluate bioavailability; details: Canis lupus familiaris
Cavia porcellus [11] = experiment: Tested ex vivo for its inhibitory activity at 1 hr against guinea pig after oral administration of 1 mg/Kg dose to evaluate bioavailability
Rattus norvegicus [12] = experiment: Tested ex vivo for its inhibitory activity at 0.5 hr against rats after oral administration of 3.2 mg/Kg dose to evaluate bioavailability
[13] = The ratio of anti-platelet activity against dog platelets to that of human platelets was determined
Rattus norvegicus [14] = experiment: Tested ex vivo for its inhibitory activity at 1 h against rats after oral administration of 3.2 mg/Kg dose to evaluate bioavailability
Canis familiaris [15] = experiment: Tested ex vivo for its inhibitory activity at 3 hr against dogs after oral administration of 1 mg/Kg dose to evaluate bioavailability; details: Canis lupus familiaris
Canis familiaris [16] = experiment: Tested ex vivo for its inhibitory activity at 1 hr against dogs after oral administration of 3.2 mg/Kg dose to evaluate bioavailability; details: Canis lupus familiaris
Canis familiaris [17] = experiment: Tested ex vivo for its inhibitory activity at 8 hr against dogs after oral administration of 3.2 mg/Kg dose to evaluate bioavailability; details: Canis lupus familiaris
Canis familiaris [18] = experiment: Tested ex vivo for its inhibitory activity at 3 hr against dogs after oral administration of 3.2 mg/Kg dose to evaluate bioavailability; details: Canis lupus familiaris
Cavia porcellus [19] = experiment: Tested ex vivo for its inhibitory activity at 3 hr against guinea pig after oral administration of 1 mg/Kg dose to evaluate bioavailability
Cavia porcellus [20] = experiment: Tested ex vivo for its inhibitory activity at 1 hr against guinea pig after oral administration of 0.1 mg/Kg dose to evaluate bioavailability
Rattus norvegicus [21] = species on record: Rattus norvegicus; experiment: The compound was tested for its stability in intestinal juice of rats after 0 h
Rattus norvegicus [22] = species on record: Rattus norvegicus; experiment: The compound was tested for its stability in intestinal juice of rats after 5 h
Rattus norvegicus [23] = species on record: Rattus norvegicus; experiment: The compound was tested for its stability in intestinal juice of rats after 2 h
Canis familiaris [24] = experiment: Tested ex vivo for its inhibitory activity at 1 hr against dogs after oral administration of 10 mg/Kg dose to evaluate bioavailability; details: Canis lupus familiaris
Rattus norvegicus [25] = experiment: Tested ex vivo for its inhibitory activity at 0.5 hr against rats after oral administration of 10 mg/Kg dose to evaluate bioavailability
Canis familiaris [26] = experiment: Tested ex vivo for its inhibitory activity at 3 hr against dogs after oral administration of 32 mg/Kg dose to evaluate bioavailability; details: Canis lupus familiaris
Rattus norvegicus [27] = experiment: Tested ex vivo for its inhibitory activity at 1 hr against rats after oral administration of 10 mg/Kg dose to evaluate bioavailability
Rattus norvegicus [28] = experiment: Tested ex vivo for its inhibitory activity at 1 hr against rats after oral administration of 20 mg/Kg dose to evaluate bioavailability
Cavia porcellus [29] = experiment: Tested ex vivo for its inhibitory activity at 6 hr against guinea pig after oral administration of 3.2 mg/Kg dose to evaluate bioavailability
Canis familiaris [30] = experiment: Tested ex vivo for its inhibitory activity at 1 hr against dogs after oral administration of 32 mg/Kg dose to evaluate bioavailability; details: Canis lupus familiaris
Canis familiaris [31] = experiment: Tested ex vivo for its inhibitory activity at 2 hr against dogs after oral administration of 3.2 mg/Kg dose to evaluate bioavailability; details: Canis lupus familiaris
Rattus norvegicus [32] = experiment: Tested ex vivo for its inhibitory activity at 0.5 hr against rats after oral administration of 20 mg/Kg dose to evaluate bioavailability
Cavia porcellus [33] = experiment: Tested ex vivo for its inhibitory activity at 1 hr against guinea pig after oral administration of 3.2 mg/Kg dose to evaluate bioavailability
Rattus norvegicus [34] = species on record: Rattus norvegicus; experiment: The compound was tested for its stability in intestinal juice of rats after 7 h
Canis familiaris [35] = experiment: Tested ex vivo for its inhibitory activity at 2 h against dogs after oral administration of 32 mg/Kg dose to evaluate bioavailability; details: Canis lupus familiaris
Rattus norvegicus [36] = experiment: Tested ex vivo for its inhibitory activity at 2 hr against rats after oral administration of 10 mg/Kg dose to evaluate bioavailability
Rattus norvegicus [37] = species on record: Rattus norvegicus; experiment: Tested for its stability in intestinal juice of rats after 5 h
Cavia porcellus [38] = experiment: Tested ex vivo for its inhibitory activity at 3 hr against guinea pig after oral administration of 3.2 mg/Kg dose to evaluate bioavailability
Rattus norvegicus [39] = species on record: Rattus norvegicus; experiment: Tested for its stability in intestinal juice of rats after 2 h
Rattus norvegicus [40] = experiment: Tested ex vivo for its inhibitory activity at 2 hr against rats after oral administration of 20 mg/Kg dose to evaluate bioavailability
Rattus norvegicus [41] = species on record: Rattus norvegicus; experiment: Tested for its stability in intestinal juice of rats after 0 h

In the case of `CC(C)Oc1ccc(CCNC(=O)[C@H](CC(=O)O)NC(=O)CCCOc2ccc(C(=N)N)cc2)cc1`, the IC50 (Homo sapiens) is reported as 370 nM.
Work on `CCOc1ccc(CCNC(=O)[C@H](CC(=O)O)NC(=O)CCCOc2ccc(C(=N)N)cc2)cc1` yielded an IC50 (Homo sapiens) of 340 nM.
In the case of `CC(C)[C@H](NC(=O)[C@H](CC(=O)O)NC(=O)CCCOc1ccc(C(=N)N)cc1)C(=O)N1CCS(=O)(=O)CC1`, the inhibition in vivo at 0.32 mg/kg (Cavia porcellus [1]) is reported as 69%, the inhibition in vivo at 10 mg/kg (Canis familiaris [2]) is reported as 45% and the inhibition in vivo at 10 mg/kg (Canis familiaris [3]) is reported as 80%. The IC50 (Canis familiaris [4]) was 110 nM, the inhibition in vivo at 0.32 mg/kg (Cavia porcellus [5]) was 50% and the inhibition in vivo at 10 mg/kg (Canis familiaris [6]) was 65%. For the same compound, the inhibition in vivo at 1 mg/kg (Canis familiaris [7]) was 40%, the inhibition in vivo at 3.2 mg/kg (Rattus norvegicus [8]) was 44% and the inhibition in vivo at 1 mg/kg (Cavia porcellus [9]) was 59%. The inhibition in vivo at 3.2 mg/kg (Canis familiaris [10]) was 46%, the inhibition in vivo at 1 mg/kg (Cavia porcellus [11]) was 100% and the inhibition in vivo at 3.2 mg/kg (Rattus norvegicus [12]) was 76%. The Ratio [13] was 3.7, the inhibition in vivo at 3.2 mg/kg (Rattus norvegicus [14]) was 97% and the IC50 (Homo sapiens) was 30 nM. It also gave an inhibition in vivo at 1 mg/kg (Canis familiaris [15]) of 11%, an inhibition in vivo at 3.2 mg/kg (Canis familiaris [16]) of 85% and an inhibition in vivo at 3.2 mg/kg (Canis familiaris [17]) of 0%. For the same compound, the inhibition in vivo at 3.2 mg/kg (Canis familiaris [18]) was 65%, the inhibition in vivo at 1 mg/kg (Cavia porcellus [19]) was 21% and the inhibition in vivo at 0.1 mg/kg (Cavia porcellus [20]) was 49%.
Compound `COc1ccc(CCNC(=O)[C@H](CC(=O)O)NC(=O)CCCOc2ccc(C(=N)N)cc2)cc1` has a Remains (Rattus norvegicus [21]) of 100%, a Remains (Rattus norvegicus [22]) of 105.7% and an IC50 (Homo sapiens) of 440 nM. For the same compound, the Remains (Rattus norvegicus [23]) was 100.5%.
`CC(C)[C@H](NC(=O)[C@H](CC(=O)O)NC(=O)CCCOc1ccc(C(=N)N)cc1)C(=O)NC1CCCCC1` showed an IC50 (Homo sapiens) of 210 nM.
`CC(C)C(C)NC(=O)[C@H](CC(=O)O)NC(=O)CCCOc1ccc(C(=N)N)cc1` (stereo not given in full) showed an IC50 (Homo sapiens) of 1400 nM.
In the case of `CCN(CC)C(=O)[C@@H](NC(=O)[C@H](CC(=O)O)NC(=O)CCCOc1ccc(C(=N)N)cc1)C(C)C`, the IC50 (Homo sapiens) is reported as 250 nM.
In the case of `CC(C)[C@H](NC(=O)[C@H](CC(=O)O)NC(=O)CCCOc1ccc(C(=N)N)cc1)C(=O)N1CCOCC1`, the inhibition in vivo at 10 mg/kg (Canis familiaris [3]) is reported as 75%, the IC50 (Canis familiaris [4]) is reported as 140 nM and the inhibition in vivo at 10 mg/kg (Canis familiaris [6]) is reported as 59%. It also gave an inhibition in vivo at 3.2 mg/kg (Rattus norvegicus [8]) of 95%, an inhibition in vivo at 3.2 mg/kg (Canis familiaris [10]) of 20% and an inhibition in vivo at 10 mg/kg (Canis familiaris [24]) of 96%. It also gave an inhibition in vivo at 3.2 mg/kg (Rattus norvegicus [12]) of 95%, a Ratio [13] of 1.8 and an inhibition in vivo at 3.2 mg/kg (Rattus norvegicus [14]) of 97%. It also gave an IC50 (Homo sapiens) of 79 nM, an inhibition in vivo at 3.2 mg/kg (Canis familiaris [16]) of 53% and an inhibition in vivo at 3.2 mg/kg (Canis familiaris [18]) of 45%.
`COc1ccc(CCNC(=O)[C@H](CC(=O)O)NC(=O)CCCOc2ccc(C(=N)N)cc2)cc1OC` showed an IC50 (Homo sapiens) of 540 nM.
With `CC(C)[C@H](NC(=O)[C@H](CC(=O)O)NC(=O)CCCOc1ccc(C(=N)N)cc1)C(N)=O` the Remains (Rattus norvegicus [21]) was 100%, the Remains (Rattus norvegicus [22]) was 107.3% and the IC50 (Homo sapiens) was 670 nM. For the same compound, the Remains (Rattus norvegicus [23]) was 105.6%.
With `CC(C)[C@H](NC(=O)[C@H](CC(=O)O)NC(=O)CCCOc1ccc(C(=N)N)cc1)C(=O)O` the inhibition in vivo at 0.32 mg/kg (Cavia porcellus [1]) was 70%, the inhibition in vivo at 10 mg/kg (Rattus norvegicus [25]) was 24% and the Remains (Rattus norvegicus [21]) was 100%. The IC50 (Canis familiaris [4]) was 380 nM, the inhibition in vivo at 32 mg/kg (Canis familiaris [26]) was 18% and the Remains (Rattus norvegicus [22]) was 25.6%. The inhibition in vivo at 10 mg/kg (Rattus norvegicus [27]) was 18%, the inhibition in vivo at 20 mg/kg (Rattus norvegicus [28]) was 33% and the inhibition in vivo at 3.2 mg/kg (Cavia porcellus [29]) was 19%. The inhibition in vivo at 32 mg/kg (Canis familiaris [30]) was 58%, the inhibition in vivo at 3.2 mg/kg (Canis familiaris [31]) was 30% and the inhibition in vivo at 20 mg/kg (Rattus norvegicus [32]) was 45%. For the same compound, the inhibition in vivo at 1 mg/kg (Cavia porcellus [11]) was 99%, the inhibition in vivo at 3.2 mg/kg (Cavia porcellus [33]) was 100% and the Remains (Rattus norvegicus [34]) was 19.2%. The inhibition in vivo at 32 mg/kg (Canis familiaris [35]) was 29%, the inhibition in vivo at 10 mg/kg (Rattus norvegicus [36]) was 4% and the Remains (Rattus norvegicus [37]) was 45.1%. It also gave an IC50 (Homo sapiens) of 100 nM, an inhibition in vivo at 3.2 mg/kg (Canis familiaris [16]) of 19% and an inhibition in vivo at 3.2 mg/kg (Cavia porcellus [38]) of 64%. The Remains (Rattus norvegicus [39]) was 63.8%, the inhibition in vivo at 3.2 mg/kg (Canis familiaris [18]) was 10% and the inhibition in vivo at 20 mg/kg (Rattus norvegicus [40]) was 20%. For the same compound, the Remains (Rattus norvegicus [41]) was 100%, the Remains (Rattus norvegicus [23]) was 61.3% and the inhibition in vivo at 1 mg/kg (Cavia porcellus [19]) was 34%.
Compound `CC(C)[C@H](NC(=O)[C@H](CC(=O)O)NC(=O)CCCOc1ccc(C(=N)N)cc1)C(=O)N1CCN(C)CC1` has an IC50 (Homo sapiens) of 180 nM.
For `CC(C)CNC(=O)[C@H](CC(=O)O)NC(=O)CCCOc1ccc(C(=N)N)cc1`, the Remains (Rattus norvegicus [21]) was 100%, the Remains (Rattus norvegicus [22]) was 83.6% and the Remains (Rattus norvegicus [34]) was 86.2%. It also gave an IC50 (Homo sapiens) of 1200 nM and a Remains (Rattus norvegicus [23]) of 80.4%.
